The values that follow come from article PMC10471729, “Luvadaxistat: A Novel Potent and Selective D-Amino Acid Oxidase Inhibitor Improves Cognitive and Social Deficits in Rodent Models for Schizophrenia” (Neurochemical Research, 2023).

The assay deals with T1, D-amino acid oxidase (DAAO) (Mus musculus, UniProt P18894).
T1 construct: gene Dao
Description: cell-based.

T1 sequence (P18894 whole entry): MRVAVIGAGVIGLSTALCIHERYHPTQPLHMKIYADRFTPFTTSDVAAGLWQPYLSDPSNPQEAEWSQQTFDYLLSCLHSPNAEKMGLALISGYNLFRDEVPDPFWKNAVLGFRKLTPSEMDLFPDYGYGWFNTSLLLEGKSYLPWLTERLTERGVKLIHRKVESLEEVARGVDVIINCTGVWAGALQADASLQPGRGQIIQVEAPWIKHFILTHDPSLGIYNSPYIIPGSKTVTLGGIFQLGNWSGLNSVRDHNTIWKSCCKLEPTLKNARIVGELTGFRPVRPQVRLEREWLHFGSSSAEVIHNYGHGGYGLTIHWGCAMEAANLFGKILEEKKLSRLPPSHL

In the case of `O=c1[nH]nc(CCc2ccc(C(F)(F)F)cc2)cc1O` [luvadaxistat], the IC50 is 5.1 nM.

In general, IC50 refers to the point on the concentration scale where inhibition reaches its midpoint. Read a high IC50 as lower potency.
